Values of other authors as cited in patent publication US20240285564A1, “USE OF (S)-3-AMINO-4-(DIFLUOROMETHYLENYL)CYCLOPENT-1-ENE-1-CARBOXYLIC ACID FOR GASTROINTESTINAL TRACT DISORDERS AND AS AN IMMUNOMODULATORY AGENT” (Ovid Therapeutics Inc., priority 2023, published 2024).

Key:
[1] = tested on: aspartate aminotransferase (Asp-AT)
OAT = target: T1, OAT (Homo sapiens, UniProt P04181)
T1 sequence (P04181 36-439 limits assumed): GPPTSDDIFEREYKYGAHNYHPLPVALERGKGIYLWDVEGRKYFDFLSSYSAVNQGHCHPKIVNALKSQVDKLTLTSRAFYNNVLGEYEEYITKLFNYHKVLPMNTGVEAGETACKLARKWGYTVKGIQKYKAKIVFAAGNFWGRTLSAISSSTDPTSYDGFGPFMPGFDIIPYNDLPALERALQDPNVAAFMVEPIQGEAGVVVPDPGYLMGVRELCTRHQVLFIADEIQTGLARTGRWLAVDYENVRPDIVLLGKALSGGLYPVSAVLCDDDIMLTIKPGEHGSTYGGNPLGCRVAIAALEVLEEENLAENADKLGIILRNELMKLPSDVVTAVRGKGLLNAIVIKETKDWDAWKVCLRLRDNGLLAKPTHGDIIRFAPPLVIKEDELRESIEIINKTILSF

[2] = tested on: alanine aminotransferase (Ala-AT)
[3] = read-out: IC50 (reversible inhibition)

Row | SMILES | inactivation or inhibition of off-target enzyme [1] | Ki (OAT) | kintact (OAT) | inactivation or inhibition of off-target enzyme [2] | IC50 [1, 3] | kintact/KI (OAT) | times more efficient an inactivator of OAT than CPP-115 (OAT; relative to CPP-115) | IC50 [2, 3]
1 | N[C@H]1C[C@@H](C(=O)O)CC1=C(F)F [CPP-115, (1S,3S)-3-amino+difluoromethylenyl-1-cyclopentanoic acid, reference compound] | not to inactivate or inhibit | 116 µM | 0.097 min⁻¹ | not to inactivate or inhibit |  |  |  | 
2 | N[C@H]1C=C(C(=O)O)CC1=C(F)F [(S)-3-amino-4-(difluoromethylenyl)cyclopent-1-ene-1-carboxylic acid] |  |  | 0.025 min⁻¹ |  | > 4000 µM | 127 M⁻¹ s⁻¹ | 9.0 times | > 4000 µM
